Tests used:
[1] = Ion binding / ion transport (ionophore)
Description: A-32887 can be used when the selective removal of particular cations is desired. Examples of such uses include the removal and recovery of silver ions from solutions in photography, the removal of toxic cations from industrial waste streams before such streams are discharged to the environment, and desalinization of sea water. A-32887 can be used as one component of an ion-specific electrode (O. Kedem, et al., U.S. Pat. No. 3,753,887, Aug. 21, 1973, Alkali metal specific measuring electrode). […] A-32887 can be used, therefore, as a component in a membrane used for the selective transport of cations against a concentration gradient. One potential application of this property is in recovery of heavy and precious metals on a commercial basis [see E. L. Cussler, D. F. Evans, and Sister M. A. Matesick, Science 172, 377 (1971)].

[2] = test system: Micrococcus lutea; assay: Conventional disc-diffusion method, Table VIII; type: cell-based; details: each as Na-K salts
Procedure: (§1) The antimicrobial activity of two typical A-32887 acyl ester derivatives is compared with that of A-32887 (each as Na-K salts) in Table VIII. Activity against illustrative bacteria is measured by the conventional disc-diffusion method. In addition, the results of a conventional paper-disc agar-diffusion assay system (Plate Assay) against Bacillus subtilis ATCC 6633 are reported. […] The samples were assayed at 1 mg/ml.

[3] = test system: Bacillus subtilis; assay: Conventional disc-diffusion method, Table VIII; type: cell-based; details: each as Na-K salts
Procedure: as §1

[4] = test system: Staphylococcus aureus; assay: Conventional disc-diffusion method, Table VIII; type: cell-based; details: each as Na-K salts
Procedure: as §1

[5] = test system: Infectious Canine Hepatitis virus; assay: In vitro plaque suppression test
[6] = test system: Transmissible Gastroenteritis virus; assay: In vitro plaque suppression test
[7] = test system: Bacillus subtilis; assay: Conventional disc-diffusion method, minimal media, Table VIII; type: cell-based; details: each as Na-K salts
[8] = test system: type B influenza virus (Maryland, dog kidney); assay: In vitro plaque suppression test; type: cell-based

For `CO[C@H]1CC[C@H](OC2[C@@H](C)[C@@](C)(O)O[C@H]([C@H]3CC[C@H]([C@@H]4CC[C@H]([C@@]5(C)O[C@]6(O[C@H](C[C@@H]7O[C@](O)([C@@H](O)C(=O)O)[C@@H](C)[C@H](OC)[C@@]7(C)OC)C[C@@H](OC)[C@H]6C)[C@H](C)[C@H]5OC)O4)O3)[C@H]2C)O[C@@H]1C.[K+].[Na+]` (stereo partly drawn) [A-32887], the “cation permeability of natural and artificial membranes” value [1] was “alters the cation permeability of both natural and artificial membranes”, the “ion-binding and ion-transport properties” value [1] was “exhibits ion-binding and ion-transport properties” and the “activity by disc-diffusion, Micrococcus lutea” value [2] was 16. For the same compound, the “activity by disc-diffusion, Bacillus subtilis” value [3] was 18, the “activity by disc-diffusion, Staphylococcus aureus” value [4] was 16 and the antiviral activity [5] was “active”. The antiviral activity [6] was “active”, the “activity by disc-diffusion, Bacillus subtilis” value [7] was 30 and the antiviral activity [8] was “active”.
